Reference: the OligoGym collection
HELM strings list units from the 5' end as sugar, base in round brackets, then linkage (d deoxyribose, r ribose, m 2'-O-methyl, p phosphodiester). Strings are as the collection lists them; they lack the last nucleoside at the 3' end of the tested compound. [moe] = 2'-O-(2-methoxyethyl) (MOE); [sp] = phosphorothioate linkage; [m5C] = 5-methylcytosine

Molecular target: APP
Test: mouse, dose not given
Conditions: ASO

Row | Substance | 3 h FOB score [score 0-7]
1 | RNA1{[moe](G)[sp].[moe]([m5C])p.[moe](A)p.[moe](T)p.[moe](G)[sp].d(T)[sp].d(T)[sp].d([m5C])[sp].d(A)[sp].d(T)[sp].d(T)[sp].d([m5C])[sp].d(T)[sp].d([m5C])[sp].d(A)[sp].[moe](T)p.[moe]([m5C])p.[moe]([m5C])[sp].[moe]([m5C])}$$$$ (last 3' nucleoside missing) | 0
2 | RNA1{[moe](G)[sp].[moe]([m5C])p.[moe](A)p.[moe](T)p.[moe](G)[sp].d([m5C])[sp].d([m5C])[sp].d(T)[sp].d(T)[sp].d([m5C])[sp].d([m5C])[sp].d(T)[sp].d([m5C])[sp].d(A)[sp].d(T)[sp].[moe]([m5C])p.[moe]([m5C])p.[moe]([m5C])[sp].[moe]([m5C])}$$$$ (last 3' nucleoside missing) | 0
3 | RNA1{[moe](G)[sp].[moe]([m5C])p.[moe](A)p.[moe](T)p.[moe](T)[sp].d([m5C])[sp].d(A)[sp].d([m5C])[sp].d(A)[sp].d(A)[sp].d([m5C])[sp].d(A)[sp].d([m5C])[sp].d(A)[sp].d([m5C])[sp].[moe](A)p.[moe](T)p.[moe]([m5C])[sp].[moe]([m5C])}$$$$ (last 3' nucleoside missing) | 0.67
4 | RNA1{[moe](G)[sp].[moe]([m5C])p.[moe](A)p.[moe](T)p.[moe](T)[sp].d([m5C])[sp].d(T)[sp].d([m5C])[sp].d(T)[sp].d(T)[sp].d(A)[sp].d(T)[sp].d(A)[sp].d(T)[sp].d(T)[sp].[moe]([m5C])p.[moe]([m5C])p.[moe](T)[sp].[moe](T)}$$$$ (last 3' nucleoside missing) | 0
5 | RNA1{[moe](G)[sp].[moe]([m5C])p.[moe](A)p.[moe](T)p.[moe](T)p.[moe]([m5C])[sp].d(T)[sp].d([m5C])[sp].d(T)[sp].d(T)[sp].d(A)[sp].d(T)[sp].d(A)[sp].d(T)[sp].d(T)[sp].d([m5C])[sp].[moe]([m5C])p.[moe](T)[sp].[moe](T)}$$$$ (last 3' nucleoside missing) | 1.25
6 | RNA1{[moe](G)[sp].[moe]([m5C])p.[moe](A)p.[moe](T)p.[moe]([m5C])[sp].d(A)[sp].d(G)[sp].d(G)[sp].d([m5C])[sp].d(T)[sp].d(A)[sp].d(A)[sp].d([m5C])[sp].d(A)[sp].d(A)[sp].[moe](G)p.[moe](T)p.[moe](T)[sp].[moe]([m5C])}$$$$ (last 3' nucleoside missing) | 4
7 | RNA1{[moe](G)[sp].[moe]([m5C])p.[moe](A)p.[moe](T)p.[moe]([m5C])[sp].d(A)[sp].d([m5C])[sp].d(A)[sp].d(A)[sp].d(T)[sp].d(T)[sp].d([m5C])[sp].d(T)[sp].d(T)[sp].d([m5C])[sp].[moe](A)p.[moe](T)p.[moe](T)[sp].[moe](G)}$$$$ (last 3' nucleoside missing) | 0
8 | RNA1{[moe](G)[sp].[moe]([m5C])p.[moe](A)p.[moe](T)p.[moe]([m5C])[sp].d(A)[sp].d([m5C])[sp].d(T)[sp].d(T)[sp].d(A)[sp].d([m5C])[sp].d(A)[sp].d(A)[sp].d(A)[sp].d([m5C])[sp].[moe](T)p.[moe]([m5C])p.[moe](A)[sp].[moe]([m5C])}$$$$ (last 3' nucleoside missing) | 0.5
9 | RNA1{[moe](G)[sp].[moe]([m5C])p.[moe](A)p.[moe](T)p.[moe]([m5C])[sp].d(T)[sp].d(T)[sp].d(T)[sp].d(T)[sp].d(A)[sp].d([m5C])[sp].d(T)[sp].d(A)[sp].d(T)[sp].d([m5C])[sp].[moe](T)p.[moe](G)p.[moe]([m5C])[sp].[moe]([m5C])}$$$$ (last 3' nucleoside missing) | 0
10 | RNA1{[moe](G)[sp].[moe]([m5C])p.[moe](A)p.[moe]([m5C])p.[moe](A)[sp].d(A)[sp].d(A)[sp].d(T)[sp].d(T)[sp].d(T)[sp].d(T)[sp].d(A)[sp].d(T)[sp].d([m5C])[sp].d(A)[sp].[moe]([m5C])p.[moe](A)p.[moe](T)[sp].[moe]([m5C])}$$$$ (last 3' nucleoside missing) | 0
11 | RNA1{[moe](G)[sp].[moe]([m5C])p.[moe](A)p.[moe]([m5C])p.[moe](A)[sp].d(A)[sp].d(T)[sp].d(T)[sp].d(A)[sp].d(T)[sp].d(T)[sp].d(G)[sp].d(T)[sp].d(T)[sp].d(T)[sp].[moe]([m5C])p.[moe]([m5C])p.[moe](T)[sp].[moe]([m5C])}$$$$ (last 3' nucleoside missing) | 1
12 | RNA1{[moe](G)[sp].[moe]([m5C])p.[moe](A)p.[moe]([m5C])p.[moe](A)[sp].d(A)[sp].d([m5C])[sp].d(T)[sp].d(T)[sp].d(T)[sp].d(A)[sp].d(T)[sp].d(T)[sp].d(T)[sp].d([m5C])[sp].[moe](T)p.[moe](A)p.[moe](G)[sp].[moe](A)}$$$$ (last 3' nucleoside missing) | 1
13 | RNA1{[moe](G)[sp].[moe]([m5C])p.[moe](A)p.[moe]([m5C])p.[moe](T)[sp].d(A)[sp].d([m5C])[sp].d(A)[sp].d(T)[sp].d(T)[sp].d(G)[sp].d([m5C])[sp].d(T)[sp].d(T)[sp].d([m5C])[sp].[moe](A)p.[moe](T)p.[moe](A)[sp].[moe]([m5C])}$$$$ (last 3' nucleoside missing) | 1
14 | RNA1{[moe](G)[sp].[moe]([m5C])p.[moe](A)p.[moe]([m5C])p.[moe]([m5C])[sp].d(A)[sp].d(T)[sp].d([m5C])[sp].d(T)[sp].d(A)[sp].d(T)[sp].d(A)[sp].d(A)[sp].d(T)[sp].d(A)[sp].[moe]([m5C])p.[moe]([m5C])p.[moe](A)[sp].[moe](T)}$$$$ (last 3' nucleoside missing) | 0
15 | RNA1{[moe](G)[sp].[moe]([m5C])p.[moe](G)p.[moe](G)p.[moe](A)[sp].d([m5C])[sp].d(A)[sp].d(T)[sp].d(A)[sp].d([m5C])[sp].d(T)[sp].d(T)[sp].d([m5C])[sp].d(T)[sp].d(T)[sp].[moe](T)p.[moe](A)p.[moe](G)[sp].[moe]([m5C])}$$$$ (last 3' nucleoside missing) | 0
16 | RNA1{[moe](G)[sp].[moe]([m5C])p.[moe](G)p.[moe]([m5C])p.[moe](A)[sp].d(T)[sp].d(T)[sp].d(T)[sp].d(A)[sp].d(T)[sp].d(A)[sp].d([m5C])[sp].d(A)[sp].d(A)[sp].d(T)[sp].[moe](A)p.[moe](T)p.[moe](A)[sp].[moe]([m5C])}$$$$ (last 3' nucleoside missing) | 0
17 | RNA1{[moe](G)[sp].[moe]([m5C])p.[moe](G)p.[moe]([m5C])p.[moe](A)[sp].d(T)[sp].d(T)[sp].d(T)[sp].d(A)[sp].d([m5C])[sp].d(T)[sp].d(A)[sp].d(G)[sp].d([m5C])[sp].d(A)[sp].[moe]([m5C])p.[moe](A)p.[moe](T)[sp].[moe](T)}$$$$ (last 3' nucleoside missing) | 1.67
18 | RNA1{[moe](G)[sp].[moe]([m5C])p.[moe](T)p.[moe](A)p.[moe](T)[sp].d(G)[sp].d(A)[sp].d([m5C])[sp].d(A)[sp].d(A)[sp].d([m5C])[sp].d(A)[sp].d([m5C])[sp].d([m5C])[sp].d(G)[sp].[moe]([m5C])p.[moe]([m5C])p.[moe]([m5C])[sp].[moe](A)}$$$$ (last 3' nucleoside missing) | 1
19 | RNA1{[moe](G)[sp].[moe]([m5C])p.[moe](T)p.[moe](A)p.[moe]([m5C])[sp].d(A)[sp].d(A)[sp].d(T)[sp].d(T)[sp].d(A)[sp].d(T)[sp].d([m5C])[sp].d([m5C])[sp].d(A)[sp].d([m5C])[sp].[moe](A)p.[moe](T)p.[moe](G)[sp].[moe](G)}$$$$ (last 3' nucleoside missing) | 0
20 | RNA1{[moe](G)[sp].[moe]([m5C])p.[moe](T)p.[moe](G)p.[moe](T)[sp].d(T)[sp].d(G)[sp].d(T)[sp].d(A)[sp].d(G)[sp].d(G)[sp].d(A)[sp].d(A)[sp].d([m5C])[sp].d(T)[sp].[moe]([m5C])p.[moe](G)p.[moe](A)[sp].[moe](A)}$$$$ (last 3' nucleoside missing) | 4
21 | RNA1{[moe](G)[sp].[moe]([m5C])p.[moe](T)p.[moe](T)p.[moe](A)[sp].d([m5C])[sp].d(A)[sp].d(T)[sp].d([m5C])[sp].d(A)[sp].d(T)[sp].d(T)[sp].d(T)[sp].d(T)[sp].d([m5C])[sp].[moe](T)p.[moe](T)p.[moe](G)[sp].[moe]([m5C])}$$$$ (last 3' nucleoside missing) | 0
22 | RNA1{[moe](G)[sp].[moe]([m5C])p.[moe](T)p.[moe](T)p.[moe]([m5C])[sp].d(A)[sp].d(T)[sp].d(T)[sp].d(A)[sp].d([m5C])[sp].d([m5C])[sp].d(A)[sp].d([m5C])[sp].d(T)[sp].d(T)[sp].[moe]([m5C])p.[moe](T)p.[moe](G)[sp].[moe](A)}$$$$ (last 3' nucleoside missing) | 1
23 | RNA1{[moe](G)[sp].[moe]([m5C])p.[moe](T)p.[moe]([m5C])p.[moe](A)[sp].d(G)[sp].d(A)[sp].d(G)[sp].d([m5C])[sp].d([m5C])[sp].d(A)[sp].d(G)[sp].d(G)[sp].d([m5C])[sp].d(G)[sp].[moe](A)p.[moe](G)p.[moe](T)[sp].[moe]([m5C])}$$$$ (last 3' nucleoside missing) | 3
24 | RNA1{[moe](G)[sp].[moe]([m5C])p.[moe](T)p.[moe]([m5C])p.[moe](A)[sp].d(T)[sp].d(T)[sp].d(T)[sp].d(T)[sp].d(T)[sp].d(T)[sp].d(T)[sp].d(T)[sp].d(A)[sp].d([m5C])[sp].[moe](A)p.[moe](T)p.[moe](G)[sp].[moe](A)}$$$$ (last 3' nucleoside missing) | 0
25 | RNA1{[moe](G)[sp].[moe]([m5C])p.[moe]([m5C])p.[moe](A)p.[moe](A)[sp].d([m5C])[sp].d(T)[sp].d(T)[sp].d(A)[sp].d(T)[sp].d(T)[sp].d([m5C])[sp].d(T)[sp].d([m5C])[sp].d(A)[sp].[moe](A)p.[moe](G)p.[moe](G)[sp].[moe](G)}$$$$ (last 3' nucleoside missing) | 1
